Results: publication PMC11638965, “Leveraging Dual-Ligase Recruitment to Enhance Protein Degradation via a Heterotrivalent Proteolysis Targeting Chimera” (Journal of the American Chemical Society, 2024)

Columns and labels:
Assay in all cases: Western blot dose-response degradation in homozygous HiBiT-BromoTag-BRD4 HEK293 cells
CRBN = CRBN (Homo sapiens, UniProt Q96SW2); assay type: cell-based; design: Western blot data for BET, CRBN and VHL protein levels; endogenous in cells; host or cells: HEK293 (ATCC)
Chain of CRBN (Q96SW2 whole entry): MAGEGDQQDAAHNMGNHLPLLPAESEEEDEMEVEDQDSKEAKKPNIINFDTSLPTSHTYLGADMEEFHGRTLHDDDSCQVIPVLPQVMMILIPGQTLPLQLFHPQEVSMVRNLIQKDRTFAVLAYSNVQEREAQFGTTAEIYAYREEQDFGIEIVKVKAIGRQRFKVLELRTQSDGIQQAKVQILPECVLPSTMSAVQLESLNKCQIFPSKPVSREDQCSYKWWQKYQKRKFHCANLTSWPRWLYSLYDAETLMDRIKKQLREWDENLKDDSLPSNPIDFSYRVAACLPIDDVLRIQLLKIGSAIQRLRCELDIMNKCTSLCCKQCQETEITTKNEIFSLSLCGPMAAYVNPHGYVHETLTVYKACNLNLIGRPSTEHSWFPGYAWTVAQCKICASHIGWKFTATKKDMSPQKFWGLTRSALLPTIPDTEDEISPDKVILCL
Procedure: (§1) Cell Culture HEK293 cells were obtained from ATCC. HEK293 was cultured in DMEM supplemented with 10% (v/v) fetal bovine serum (FBS), 1% […] and 1% (v/v) penicillin/streptomycin (pen/strep) at 37 °C, 5% CO2, and 95% humidity.
(§2) To perform the single gRNA Cas9 CRISPR KI of BromoTag into BRD4 in HEK293. HEK293 cells were plated at a density of 5 × 10^5 cells into individual wells of a six-well plate in 1 mL of DMEM and left overnight to adhere to the plate. The cells were subsequently transfected the following day using GeneJuice lipofectamine reagent simultaneously with a custom donor vector pMK-RQ containing 500bp BRD4 homology arms on either side of an eGFP-IRES-HiBiT-BromoTag and two individual pBABED vector harboring U6-sgRNA and puromycin expression cassettes containing two BRD4 targeting gRNA sequences: […] and […]. The construction of these plasmids was performed by Thomas Macartney of the MRC-PPU CRISPR services. The following day cells were washed with PBS before fresh DMEM media was applied cells were left to recover in DMEM for a further 4 days. Cells were subsequently FACS sorted for GFP expression and expanded from single cells. HEK293 clones were validated for eGFP-IRES-HiBIT-BromoTag-BRD4 integration via WB, junction PCR and sequencing.
Dose–response degradation assay 97 of was performed on the genotype verified eGFP-IRES-HiBIT-BromoTag-BRD4 homozygous HEK293 cell lines. The cells were plated at a density of 5 × 10^5 cells per well of a six well plate a day prior to initiation of the experiment. 97 was dissolved into a 10 mM concentrated stock solution in DMSO from which 97 was further diluted to a working concentration range of 10 μM to 10 pM in DMEM and was subsequently added to cells. […]
Total protein quantity was determined using the BCA protein assay. Protein concentration was determined using the BCA assay. […] All Western blots were analyzed for band intensities using Image Lab (Bio-Rad). The data extracted from these blots were then plotted and analyzed using Prism (v. 10.2.2, GraphPad). […]

[1] = test system: BromoTag-BRD4 (BRD4^Long); assay type: cell-based, human; settings: for pDC50 BRD4Long: homozygous BromoTag-BRD4 HEK293 cells (Table S8)
Procedure: as §1, §2
(§3) Dose–response degradation assay 97 of was performed on the genotype verified eGFP-IRES-HiBIT-BromoTag-BRD4 homozygous HEK293 cell lines. The cells were plated at a density of 5 × 10^5 cells per well of a six well plate a day prior to initiation of the experiment. 97 was dissolved into a 10 mM concentrated stock solution in DMSO from which 97 was further diluted to a working concentration range of 10 μM to 10 pM in DMEM and was subsequently added to cells. Additional controls including, vehicle, AGB1 (1 μM) and cis-AGB1 (1 μM) were similarly added to cells alongside 97 treatments. Cells were left to incubate with compound for 4 h at 37 °C, 5% CO2, and 95% humidity. Cells were then subsequently washed twice with PBS before being harvested in RIPA buffer supplemented with protease inhibitor cocktail and Benzonase Nuclease before being store at −20 °C.
Total protein quantity was determined using the BCA protein assay. Protein concentration was determined using the BCA assay. Samples were then prepared in LDS buffer and subsequently loaded onto NuPAGE 4–12% Bis-Tris Midi gels, followed by the transfer of the proteins onto nitrocellulose membranes. The membranes were blocked for 1 h prior to incubation with the primary antibodies using 5% Milk TBST. […] All Western blots were analyzed for band intensities using Image Lab (Bio-Rad). The data extracted from these blots were then plotted and analyzed using Prism (v. 10.2.2, GraphPad). […]

BRD3 = target: T1, BRD3 (Homo sapiens, UniProt Q15059); assay type: cell-based
T1 construct: HiBiT, is appended to the N-terminus of endogenous BRD2, BRD3, and BRD4; endogenous in cells
T1 sequence (Q15059 whole entry): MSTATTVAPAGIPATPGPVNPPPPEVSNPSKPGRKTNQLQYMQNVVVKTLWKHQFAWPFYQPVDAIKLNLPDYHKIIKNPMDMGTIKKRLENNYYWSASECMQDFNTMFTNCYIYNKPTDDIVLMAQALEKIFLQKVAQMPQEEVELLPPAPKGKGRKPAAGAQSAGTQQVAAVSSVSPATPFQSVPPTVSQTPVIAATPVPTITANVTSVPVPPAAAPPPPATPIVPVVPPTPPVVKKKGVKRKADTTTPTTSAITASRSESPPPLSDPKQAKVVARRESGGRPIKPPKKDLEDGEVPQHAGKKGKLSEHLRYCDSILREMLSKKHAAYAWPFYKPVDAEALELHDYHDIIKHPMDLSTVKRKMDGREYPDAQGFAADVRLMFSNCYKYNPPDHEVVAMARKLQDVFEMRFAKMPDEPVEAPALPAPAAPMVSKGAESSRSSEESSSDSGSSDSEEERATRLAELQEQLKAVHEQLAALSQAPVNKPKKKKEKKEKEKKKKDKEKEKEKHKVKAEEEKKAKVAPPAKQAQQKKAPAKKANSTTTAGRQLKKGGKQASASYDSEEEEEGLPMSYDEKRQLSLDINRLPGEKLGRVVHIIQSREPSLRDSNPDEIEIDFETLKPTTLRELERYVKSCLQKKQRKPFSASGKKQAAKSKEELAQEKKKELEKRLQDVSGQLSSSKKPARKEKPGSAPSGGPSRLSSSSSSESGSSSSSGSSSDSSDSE
Procedure: as §1, §2, §3
(§4) Total protein quantity was determined using the BCA protein assay. Protein concentration was determined using the BCA assay. Samples were then prepared in LDS buffer and subsequently loaded onto NuPAGE 4–12% Bis-Tris Midi gels, followed by the transfer of the proteins onto nitrocellulose membranes. The membranes were blocked for 1 h prior to incubation with the primary antibodies using 5% Milk TBST. Membranes were incubated at 4 °C in either BRD4(Ab128874), BRD3(Ab50818) or BRD2(Ab139690) primary antibody overnight. Following overnight incubation, the membranes were incubated with complementary IRDye 800CW secondary antibodies and a hFAB Rhodamine Anti-Tubulin Primary Antibody (loading control) for 1 h and then imaged with a Bio-Rad imager. All Western blots were analyzed for band intensities using Image Lab (Bio-Rad). The data extracted from these blots were then plotted and analyzed using Prism (v. 10.2.2, GraphPad). All Western blotting figures were developed in Adobe Illustrator.

BRD2 = target: T2, BRD2 (Homo sapiens, UniProt P25440); assay type: cell-based
T2 construct: HiBiT, is appended to the N-terminus of endogenous BRD2, BRD3, and BRD4; endogenous in cells
T2 sequence (P25440 whole entry): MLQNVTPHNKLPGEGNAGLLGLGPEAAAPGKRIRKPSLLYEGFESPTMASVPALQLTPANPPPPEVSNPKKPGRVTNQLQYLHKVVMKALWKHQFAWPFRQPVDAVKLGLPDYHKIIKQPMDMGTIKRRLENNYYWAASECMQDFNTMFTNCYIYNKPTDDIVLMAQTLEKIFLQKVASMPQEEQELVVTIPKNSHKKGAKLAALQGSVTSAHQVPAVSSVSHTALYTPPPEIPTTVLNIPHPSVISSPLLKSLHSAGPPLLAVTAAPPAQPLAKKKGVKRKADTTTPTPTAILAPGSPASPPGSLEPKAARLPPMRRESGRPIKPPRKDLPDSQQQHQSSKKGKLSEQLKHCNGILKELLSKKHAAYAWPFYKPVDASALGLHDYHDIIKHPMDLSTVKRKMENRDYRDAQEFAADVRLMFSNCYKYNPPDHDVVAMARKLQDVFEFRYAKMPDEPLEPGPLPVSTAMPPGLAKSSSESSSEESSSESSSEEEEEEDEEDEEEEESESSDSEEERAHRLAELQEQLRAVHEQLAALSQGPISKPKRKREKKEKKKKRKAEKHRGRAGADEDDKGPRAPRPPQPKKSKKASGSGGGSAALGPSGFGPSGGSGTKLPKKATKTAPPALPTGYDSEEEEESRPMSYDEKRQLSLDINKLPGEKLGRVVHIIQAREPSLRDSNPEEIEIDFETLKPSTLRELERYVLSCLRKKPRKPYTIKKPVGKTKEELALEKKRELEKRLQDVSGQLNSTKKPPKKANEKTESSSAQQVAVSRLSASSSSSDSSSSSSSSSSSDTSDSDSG
Procedure: as §1, §2, §3, §4

[2] = target: T3, BromoTag-BRD4 (BRD4^Short) (Homo sapiens, UniProt O60885, L387A); assay type: cell-based
T3 construct: homozygous endogenous HiBiT-BromoTag-BRD4 HEK293 cell line; endogenous in cells; host or cells: HEK293, homozygous CRISPR knock-in eGFP-IRES-HiBiT-BromoTag-BRD4
Procedure: as §1, §2, §3, §4

[3] = HiBiT-BromoTag-BRD4 HEK293, 4 hours, n = 1 (Figure 12)
[4] = HiBiT-BromoTag-BRD4 HEK293, 4 hours (Figure 12)
[5] = homozygous BromoTag-BRD4 HEK293 cells (Table S8)

Structure (SMILES)	fold more potent degradation of CRBN than 27 (CRBN; DC50 2.1 nM vs 75 nM) [fold]	DC50 (CRBN; [3]) [nM]	Dmax (CRBN; [3]) [%]	DC50 [1, 4] [nM]	Dmax BRD4^Long [1, 4] [%]	pDC50 BRD4Long [1]	selectivity window of BromoTag-BRD4 degradation over BRD3 (BRD3; DC50 ratio) [fold]	DC50 (BRD3; [4]) [nM]	Dmax (BRD3; [4]) [%]	pDC50 BRD3 (BRD3; [5])	selectivity window of BromoTag-BRD4 degradation over BRD2 (BRD2; DC50 ratio) [fold]	DC50 (BRD2; [4]) [nM]	Dmax (BRD2; [4]) [%]	Dmax (BRD2; [5]) [%]	DC50 [2, 4] [nM]	Dmax [2, 4] [%]	pDC50 BRD4Short [2, 5]	Dmax % BRD4Short [2, 5] [%]
CC[C@@H](C(=O)OCCOCCOCCOCC(C)(COCCOCCOCCNc1cc2c(cc1F)C(=O)N(C1CCC(=O)NC1=O)C2=O)COCC(=O)N[C@H](C(=O)N1C[C@H](O)C[C@H]1C(=O)N[C@@H](C)c1ccc(-c2scnc2C)cc1)C(C)(C)C)[C@@H]1N=C(c2ccc(Cl)cc2)c2c(sc(C)c2C)-n2c(C)nnc21 (mixture of isomers) [AB3145 (97), (17S)-11-((2-(2-(2-((2-(2,6-dioxopiperidin-3-yl)-6-fluoro-1,3-dioxoisoindolin-5-yl)amino)ethoxy)ethoxy)ethoxy)methyl)-17-((2S,4R)-4-hydroxy-2-(((S)-1-(4-(4-methylthiazol-5-yl)phenyl)ethyl)carbamoyl)pyrrolidine-1-carbonyl)-11,18,18-trimethyl-15-oxo-3,6,9,13-tetraoxa-16-azanonadecyl (2R)-2-((S)-4-(4-chlorophenyl)-2,3,9-trimethyl-6H-thieno[3,2-f][1,2,4]triazolo[4,3-a][1,4]diazepin-6-yl)butanoate]	~35	2.1	77	0.12	85	9.9 ± 0.6	250	33	79	7.5 ± 0.4	6000	770	50	56	0.14	86	9.9 ± 0.1	–
CC[C@@H](C(=O)OCCOCCOCCOCC(=O)N[C@H](C(=O)N1C[C@H](O)C[C@H]1C(=O)NCc1ccc(-c2scnc2C)cc1)C(C)(C)C)[C@@H]1N=C(c2ccc(Cl)cc2)c2c(sc(C)c2C)-n2c(C)nnc21 [AGB1, reference compound]	–	–	–	–	–	8.0 ± 0.2	–	–	–	–	–	–	–	–	–	–	8.6 ± 0.1	11
